Results as given in patent US12077483B2, “Modified amine lipids” (Intellia Therapeutics, Inc., priority 2018, dated 2024).

Key:
[1] = LNP average particle size and polydispersity by dynamic light scattering; type: physicochemical; conditions: Table 13; LNP sgRNA:Cas9 mRNA 1:2 w/w, N/P 6.0
In short: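 LNPs were diluted in PBS to a count rate of about 200-400 kcps and measured by DLS on a Zetasizer. Size is the intensity-weighted Z-average diameter, reported with number-average diameter, and the polydispersity index describes the spread of sizes around the mean.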

[2] = pKa of amine lipid by TNS fluorescence; type: physicochemical; conditions: probe TNS (6-(p-toluidino)-2-naphthalenesulfonic acid sodium salt), unformulated amine lipid in ethanol, sodium phosphate buffers -9.0
In short: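 pKa derived from a sigmoidal fit of normalized TNS fluorescence (321 nm excitation, 448 nm emission) versus pH. Lipid from ethanol stock diluted to about 100 μM final in 0.1 M phosphate buffers, pH 4.5–9.0.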

[3] = RNA encapsulation efficiency of LNP (Ribogreen fluorescence assay); type: physicochemical; conditions: Table 13; LNP sgRNA:Cas9 mRNA 1:2 w/w, N/P 6.0
In short: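 LNP samples diluted in 1× TE with or without 0.2% Triton-X 100 for total or free RNA, stained ~10 min at room temperature in the dark with RiboGreen; fluorescence ex 488/em 525 nm against RNA standard curves. Encapsulation efficiency = (Total RNA−Free RNA)/Total RNA.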

TTR in HUH7 cells = experiment: In vitro editing in HUH7 cells, LNP with Cas9 mRNA and sgRNA G000502, NGS; type: cell-based, human; conditions: Table 14; 2000 ng RNA per well, cells harvested 6 hours post-transfection, biological duplicate, G000502 target locus
Procedure: A series of compounds based on Compound 46 that vary by the inclusion of a C4-12 alkyl at the R^3 position of Formula (IA) (as illustrated in FIG. 13A) were tested for in vitro editing. The human hepatocellular carcinoma cell line […] (Japanese Collection of Research Bioresources Cell Bank, Cat. JCRB0403) was cultured in DMEM media supplemented with 10% fetal bovine serum and 1% Penicillin-Streptomycin. Cells were plated at a density of 20,000 cells/well in a 96-well plate 24 hours prior to transfection (˜80% confluent at time of transfection). The LNPs were formulated at a 1:2 w/w ratio of sgRNA and Cas9 mRNA using the cross flow procedure with lipid molar compositions as described in Table 13 at an N/P ratio of 6.0. LNP compositions were analyzed for average particle size, polydispersity (pdi), total RNA content and encapsulation efficiency of RNA as described in Example 115. Analysis of average particle size, polydispersity (PDI), total RNA content and encapsulation efficiency of RNA are shown in Table 13. LNPs were diluted into media, incubated for 5 minutes at 37 C and pipetted onto cells at a dose of 2000 ng RNA per well. Each condition was assayed in biological duplicate. Cells were harvested post-transfection at 6 hours. Genomic DNA was extracted using 50 μL/well BuccalAmp DNA Extraction solution (Epicentre, Cat. QE09050) according to manufacturer's protocol. All DNA samples were subjected to PCR and subsequent NGS analysis for editing at the G000502 target locus, as described above. As shown in Table 14 and FIG. 13B, all compounds tested were efficacious for in vitro editing.

mouse TTR = experiment: Serum TTR ELISA in mice after LNP delivery; type: in vivo; conditions: for Serum TTR: Exp. 1, 8, 9, 10
In short: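 Mouse TTR in serum was quantified by ELISA (samples diluted e.g. 10,000- and/or 2,500-fold) 6–7 days after dosing CD-1 females with LNP, typically 0.1 mpk. Values are reported relative to vehicle-treated controls (%).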

mouse TTR gene = experiment: In vivo editing in mouse liver, LNP with Cas9 mRNA and sgRNA G282, NGS; conditions: Table 3; guide G282; CD-1 female mice, 0.1 mpk i.v., liver at 6 or 7 days; Exp. 1, 8, 9, 10
Procedure: LNPs were prepared using various amine lipids in a 4-component lipid system consisting of an ionizable lipid (e.g. an amine lipid), DSPC, cholesterol and PEG-2k-DMG. In assays for percent liver editing in mice, Cas9 mRNA and chemically modified sgRNA targeting a mouse sequence were formulated in LNPs, at either a 1:1 w/w ratio or a 1:2 w/w ratio.
The lipid components were dissolved in 100% ethanol with the lipid component molar ratios described below. The chemically modified sgRNA and Cas9 mRNA were combined and dissolved in 25 mM citrate, 100 mM NaCl, pH 5.0, resulting in a concentration of total RNA cargo of approximately 0.45 mg/mL. The LNPs were formulated with an N/P ratio of about 6, with the ratio of chemically modified sgRNA: Cas9 mRNA at either a 1:1 or 1:2 w/w ratio as described below.
CD-1 female mice, ranging from 6-10 weeks of age were used in each study. Animals were weighed and grouped according to body weight for preparing dosing solutions based on group average weight. LNPs were dosed via the lateral tail vein in a volume of 0.2 mL per animal (approximately 10 mL per kilogram body weight). The animals were periodically observed for adverse effects for at least 24 hours post dose.
For studies measuring in vivo editing in liver, CD-1 female mice were dosed at 0.1 mpk unless otherwise noted. Animals were euthanized at 6 or 7 days by exsanguinationvia cardiac puncture under isoflourane anesthesia. Liver tissue was collected from each animal for DNA extraction and analysis. Blood was collected into serum separator tubes or into tubes containing buffered sodium citrate for plasma as described herein. Cohorts of mice were measured for editing by Next-Generation Sequencing (NGS).
In brief, to quantitatively determine the efficiency of editing at the target location in the genome, genomic DNA was isolated and deep sequencing was utilized to identify the presence of insertions and deletions introduced by gene editing.
PCR primers were designed around the target site (e.g., B2M), and the genomic area of interest was amplified. Additional PCR was performed according to the manufacturer's protocols (Illumina) to add the necessary chemistry for sequencing. The amplicons were sequenced on an Illumina MiSeq instrument. The reads were aligned to the relevant reference genome (e.g., GRCm38) after eliminating those having low quality scores. The resulting files containing the reads were mapped to the reference genome (BAM files), where reads that overlapped the target region of interest were selected and the number of wild type reads versus the number of reads which contain an insertion, substitution, or deletion was calculated.
The editing percentage (e.g., the “editing efficiency” or “percent editing”) is defined as the total number of sequence reads with insertions or deletions over the total number of sequence reads, including wild type.
We assessed in vivo editing efficiency for materials delivered with formulations including various amine lipid compounds. Editing was measured using either G282 (SEQ ID No: 1) which targets the mouse TTR gene or G650 (SEQ ID No. 2) which targets the mouse B2M gene. Lipids described above were assessed for efficacy through in vivo editing experiments. LNPs were formulated at a 1:1 w/w ratio of sgRNA to Cas9 mRNA, and at an N/P ratio of about 6. Molar concentrations of lipids in the lipid component of the LNPs are expressed as mol % amine lipid/DSPC/cholesterol/PEG-2k-DMG, e.g. 50/10/38.5/1.5. The final LNPs were characterized to determine the encapsulation efficiency, polydispersity index, and average particle size according to the analytical methods provided above. Analysis of average particle size, polydispersity (PDI), total RNA content and encapsulation efficiency of RNA are shown in Table 2.
To assess whether the editing was dose responsive, experiments were performed in vivo at various LNP dose levels. […]

[4] = Table 3, guide G282, CD-1 female mice, 0.1 mpk i.v.
[5] = Table 3, guide G282, CD-1 female mice, 0.1 mpk i.v., percentage of vehicle control (TSS)

SMILES | Number Average [nm] [1] | PDI [1] | Z-Ave Size (nm) [1] | pKa [2] | % E [3] | Editing (TTR in HUH7 cells) | Serum TTR % TSS (mouse TTR; mouse serum, relative to TSS control of same experiment, dose 0.03 mpk) | Serum TTR % TSS (mouse TTR; mouse serum, relative to TSS control of same experiment, dose 0.1 mpk) | Editing Mean % Indel (mouse TTR gene) | Serum TTR (mouse TTR; [4]) | Serum TTR % TSS (mouse TTR; [5])
CCCCC/C=C\C/C=C\CCCCCCCC(=O)OCC(COC(=O)CCCCCCC/C=C\C/C=C\CCCCC)OC(=O)CCC(CCCCCCCCCCCC)OC(=O)NCCN1CCCC1 (stereo not shown) [Compound 46, 2-((4-(((2-(pyrrolidin-1l-yl)ethyl)carbamoyl)oxy)hexadecanoyl)oxy)propane-1,3-diyl (9Z,9′Z,12Z,12′Z)-bis(octadeca-9,12-dienoate)] | 76.76 nm | 0.003 | 94.54 nm | 6.16 | 99% | 63.7% | – | – | – | – | –
CCCCC/C=C\C/C=C\CCCCCCCC(=O)OCC(COC(=O)CCCCCCC/C=C\C/C=C\CCCCC)OC(=O)CCC(CCCC)OC(=O)NCCN1CCCC1 (stereo not shown) [Compound 85, 2-((4-(((2-(pyrrolidin-1-yl)ethyl)carbamoyl)oxy)octanoyl)oxy)propane-1,3-diyl (9Z,9′Z,12Z,12′Z)-bis(octadeca-9,12-dienoate)] | 93.05 nm | 0.045 | 117.1 nm | 7.02 | 96% | 66.4% | – | – | – | – | –
CCCCC/C=C\C/C=C\CCCCCCCC(=O)OCC(COC(=O)CCCCCCC/C=C\C/C=C\CCCCC)OC(=O)CCC(CCCCCCC)OC(=O)NCCN1CCCC1 (stereo not shown) [Compound 76, 2-((4-(((2-(pyrrolidin-1l-yl)ethyl)carbamoyl)oxy)undecanoyl)oxy)propane-1,3-diyl (9Z,9′Z,12Z,12′Z)-bis(octadeca-9,12-dienoate)] | – | – | – | 6.74 | – | 61.2% | 69.72 % TSS | 12.79 % TSS | – | – | –
CCCCC/C=C\C/C=C\CCCCCCCC(=O)OCC(COC(=O)CCCCCCC/C=C\C/C=C\CCCCC)OC(=O)CCC(CCCCCCCC)OC(=O)N(C)CCN(C)C (stereo not shown) [Compound 38, 2-((4-(((2-(dimethylamino)ethyl)(methyl)carbamoyl)oxy)dodecanoyl)oxy) propane-1,3-diyl (9Z,9′Z,12Z,12′Z)-bis(octadeca-9,12-dienoate)] | – | – | – | 5.62 | – | – | – | – | 26.7% | 301 µg/mL | 39% TSS

Further lines, with some results ahead:

Number Average [nm] [1] | PDI [1] | Z-Ave Size (nm) [1] | pKa [2] | % E [3] | SMILES | Editing (TTR in HUH7 cells) | Serum TTR % TSS (mouse TTR; mouse serum, relative to TSS control of same experiment, dose 0.03 mpk) | Serum TTR % TSS (mouse TTR; mouse serum, relative to TSS control of same experiment, dose 0.1 mpk) | Editing Mean % Indel (mouse TTR gene) | Serum TTR (mouse TTR; [4]) | Serum TTR % TSS (mouse TTR; [5])
– | – | – | 6.93 | – | CCCCC/C=C\C/C=C\CCCCCCCC(=O)OCC(COC(=O)CCCCCCC/C=C\C/C=C\CCCCC)OC(=O)NCCN(C)CC [Compound 114, 2-(((2-(ethyl(methyl)amino)ethyl)carbamoyl)oxy)propane-1,3-diyl (9Z,9′Z,12Z,12′Z)-bis(octadeca-9,12-dienoate), reference compound] | – | – | – | 0.8% | 637 µg/mL | 78% TSS
– | – | – | 6.52 | – | CCCCC/C=C\C/C=C\CCCCCCCC(=O)OCC(COC(=O)CCCCCCC/C=C\C/C=C\CCCCC)OC(=O)CCC(CCCC)OC(=O)NCCN(C)CC (stereo not shown) [Compound 42, 2-((4-(((2-(ethyl(methyl)amino)ethyl)carbamoyl)oxy)octanoyl)oxy)propane-1,3-diyl (9Z,9′Z,12Z,12′Z)-bis(octadeca-9,12-dienoate)] | – | – | – | 21.6% | 473 µg/mL | 58% TSS
